Experimental data taken from ChEMBL document CHEMBL5325501, “Discovery of BWA-522, a First-in-Class and Orally Bioavailable PROTAC Degrader of the Androgen Receptor Targeting N-Terminal Domain for the Treatment of Prostate Cancer” (J Med Chem, 2023).
Activity calls are given as the source filed them. The calls are words filed in the database; no cut-off is given here.

How the values were obtained:
[1] = Stability in human plasma assessed as parent compound remaining measured after 120 mins by LC-MS/MS analysis; type: ADME, cell-free; details: read-out: Stability
[2] = Tmax in ICR mouse at 2 mg/kg, iv measured by LC-MS/MS analysis; type: ADME, organism-based; details: in vivo
[3] = system: CWR22R; assay: Antiproliferative activity against enzalutamide-resistant human 22Rv1 cells assessed as reduction in cell viability incubated for 6 days by CCK-8 assay; type: functional, cell-based; details: 22Rv1, 144 h
[4] = AUC(0 to t) in ICR mouse at 10 mg/kg, po measured by LC-MS/MS analysis; type: ADME, organism-based; design: dose 10 mg/kg, route po; details: in vivo
[5] = Oral bioavailability in ICR mouse at 10 mg/kg measured by LC-MS/MS analysis; type: ADME, organism-based; details: in vivo
[6] = Cmax in ICR mouse at 2 mg/kg, iv measured by LC-MS/MS analysis; type: ADME, organism-based; design: dose 2 mg/kg, route iv; details: in vivo
[7] = Metabolic stability in human liver microsomes assessed as parent compound remaining at 2 uM preincubated for 10 mins in the presence of NADPH followed by compound addition and measured after 60 mins by LC-MS/MS analysis; type: ADME, Microsome; details: read-out: Stability
[8] = Stability in human plasma assessed as parent compound remaining measured after 15 mins by LC-MS/MS analysis; type: ADME, cell-free; details: read-out: Stability
[9] = Downregulation of PSA protein level in human LNCaP cells at 10 uM incubated for 48 hrs by Western blot analysis relative to control; type: functional
[10] = Tmax in beagle dog at 5 mg/kg, po measured by LC-MS/MS analysis; type: ADME, organism-based, Canis lupus familiaris; details: in vivo
[11] = Stability in mouse plasma assessed as parent compound remaining measured after 30 mins by LC-MS/MS analysis; type: ADME, cell-free; details: read-out: Stability
[12] = system: LNCaP; assay: Downregulation of PSA protein level in human LNCaP cells incubated for 48 hrs by Western blot analysis; type: functional, cell-based; details: dose 1-10 µM
[13] = Toxicity in ICR mouse assessed as kidney damage at 20 to 60 mg/kg, po administered daily for 14 days; type: organism-based; details: in vivo, 336 h, dose 20-60 mg/kg, time 14 day
[14] = Metabolic stability in mouse liver microsomes assessed as intrinsic clearance at 2 uM preincubated for 10 mins in the presence of NADPH followed by compound addition and measured per mg protein after 60 mins by LC-MS/MS analysis; type: ADME, Microsome; details: read-out: CLH
[15] = Clearance in beagle dog at 1 mg/kg, iv measured by LC-MS/MS analysis; type: ADME, organism-based, Canis lupus familiaris; details: in vivo
[16] = Metabolic stability in mouse liver microsomes assessed as half-life at 2 uM preincubated for 10 mins in the presence of NADPH followed by compound addition and measured after 60 mins by LC-MS/MS analysis; type: ADME, Microsome
[17] = Cmax in beagle dog at 5 mg/kg, po measured by LC-MS/MS analysis; type: ADME, organism-based, Canis lupus familiaris; design: dose 5 mg/kg, route po; details: in vivo
[18] = system: VCaP; assay: Antiproliferative activity against human VCaP cells assessed as reduction in cell viability incubated for 6 days by CCK-8 assay; type: functional, cell-based; details: 144 h
[19] = Tmax in ICR mouse at 10 mg/kg, po measured by LC-MS/MS analysis; type: ADME, organism-based; details: in vivo
[20] = system: LNCaP; assay: Downregulation of FKBP51 protein level in human LNCaP cells incubated for 48 hrs by Western blot analysis; type: functional, cell-based; details: dose 1-10 µM
[21] = Oral bioavailability in beagle dog at 5 mg/kg measured by LC-MS/MS analysis; type: ADME, organism-based, Canis lupus familiaris; details: in vivo
[22] = AUC(0 to t) in beagle dog at 5 mg/kg, po measured by LC-MS/MS analysis; type: ADME, organism-based, Canis lupus familiaris; design: dose 5 mg/kg, route po; details: in vivo
[23] = Half-life in ICR mouse at 2 mg/kg, iv measured by LC-MS/MS analysis; type: ADME, organism-based; details: in vivo
[24] = Stability in human plasma assessed as parent compound remaining measured immediately by LC-MS/MS analysis; type: ADME, cell-free; details: read-out: Stability
[25] = Half-life in beagle dog at 1 mg/kg, iv measured by LC-MS/MS analysis; type: ADME, organism-based, Canis lupus familiaris; details: in vivo
[26] = Metabolic stability in mouse liver microsomes assessed as parent compound remaining at 2 uM preincubated for 10 mins in the presence of NADPH followed by compound addition and measured after 60 mins by LC-MS/MS analysis; type: ADME, Microsome; details: read-out: Stability
[27] = Stability in human plasma assessed as parent compound remaining measured after 30 mins by LC-MS/MS analysis; type: ADME, cell-free; details: read-out: Stability
[28] = system: LNCaP; assay: Downregulation of TMPRSS2 protein level in human LNCaP cells incubated for 48 hrs by Western blot analysis; type: functional, cell-based; details: dose 1-10 µM
[29] = Metabolic stability in mouse liver microsomes assessed as parent compound remaining at 2 uM preincubated for 10 mins followed by compound addition and measured after 60 mins by LC-MS/MS analysis; type: ADME, Microsome; details: read-out: Stability
[30] = Toxicity in ICR mouse assessed as testicle damage at 20 to 60 mg/kg, po administered daily for 14 days; type: organism-based; details: in vivo, 336 h, dose 20-60 mg/kg, time 14 day
[31] = Tmax in beagle dog at 1 mg/kg, iv measured by LC-MS/MS analysis; type: ADME, organism-based, Canis lupus familiaris; details: in vivo
[32] = system: VCaP; assay: Downregulation of FKBP51 protein level in human VCaP cells incubated for 48 hrs by Western blot analysis; type: functional, cell-based; details: dose 1-10 µM
[33] = target: Voltage-gated inwardly rectifying potassium channel KCNH2 (Homo sapiens, UniProt Q12809); assay: Inhibition of hERG in HEK293 cells by whole-cell manual patch clamp technique; type: toxicity, cell-based
Chain of Voltage-gated inwardly rectifying potassium channel KCNH2 (Q12809 whole entry): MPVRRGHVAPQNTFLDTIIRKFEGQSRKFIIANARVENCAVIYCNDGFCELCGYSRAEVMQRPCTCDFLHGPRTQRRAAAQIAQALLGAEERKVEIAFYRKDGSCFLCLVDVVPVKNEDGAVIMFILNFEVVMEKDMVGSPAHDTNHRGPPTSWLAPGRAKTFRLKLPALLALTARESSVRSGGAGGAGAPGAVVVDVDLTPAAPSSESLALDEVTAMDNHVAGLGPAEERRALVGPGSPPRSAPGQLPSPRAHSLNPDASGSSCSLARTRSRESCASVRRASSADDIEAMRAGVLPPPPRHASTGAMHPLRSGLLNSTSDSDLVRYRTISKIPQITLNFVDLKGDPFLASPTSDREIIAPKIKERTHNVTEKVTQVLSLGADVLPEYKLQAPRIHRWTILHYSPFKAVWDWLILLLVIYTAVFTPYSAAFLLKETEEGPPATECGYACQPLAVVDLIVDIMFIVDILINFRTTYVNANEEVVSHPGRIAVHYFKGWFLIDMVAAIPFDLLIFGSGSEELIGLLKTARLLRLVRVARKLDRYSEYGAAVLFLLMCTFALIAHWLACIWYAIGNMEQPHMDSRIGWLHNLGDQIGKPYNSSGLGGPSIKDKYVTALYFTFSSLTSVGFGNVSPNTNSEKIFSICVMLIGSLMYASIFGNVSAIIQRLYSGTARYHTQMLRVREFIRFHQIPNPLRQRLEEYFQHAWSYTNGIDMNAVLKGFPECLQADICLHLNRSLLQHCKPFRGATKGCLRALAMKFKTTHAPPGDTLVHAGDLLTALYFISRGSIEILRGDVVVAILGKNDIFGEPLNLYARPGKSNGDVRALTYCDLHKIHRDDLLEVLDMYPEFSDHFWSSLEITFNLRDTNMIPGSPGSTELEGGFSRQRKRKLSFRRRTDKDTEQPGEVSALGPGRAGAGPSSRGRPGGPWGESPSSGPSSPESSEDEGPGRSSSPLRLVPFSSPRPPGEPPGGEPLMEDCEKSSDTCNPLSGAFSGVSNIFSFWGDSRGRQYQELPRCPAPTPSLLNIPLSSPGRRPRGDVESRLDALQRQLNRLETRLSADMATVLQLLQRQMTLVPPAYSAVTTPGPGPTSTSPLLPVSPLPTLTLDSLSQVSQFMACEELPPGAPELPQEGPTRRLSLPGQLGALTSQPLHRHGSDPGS

[34] = Toxicity in NOD SCID mouse xenografted with human LNCaP cells assessed as body weight loss at 20 to 60 mg/kg, po administered daily for 4 weeks; type: organism-based; details: in vivo, 672 h, dose 20-60 mg/kg
[35] = system: LNCaP; assay: Inhibition of colony formation in human LNCaP cells incubated for 2 weeks by crystal violet staining based analysis; type: functional, cell-based; details: dose 1-10 µM
[36] = AUC(0 to t) in ICR mouse at 2 mg/kg, iv measured by LC-MS/MS analysis; type: ADME, organism-based; design: dose 2 mg/kg, route iv; details: in vivo
[37] = Half-life in beagle dog at 5 mg/kg, po measured by LC-MS/MS analysis; type: ADME, organism-based, Canis lupus familiaris; details: in vivo
[38] = Cmax in ICR mouse at 10 mg/kg, po measured by LC-MS/MS analysis; type: ADME, organism-based; design: dose 10 mg/kg, route po; details: in vivo
[39] = Half-life in ICR mouse at 10 mg/kg, po measured by LC-MS/MS analysis; type: ADME, organism-based; details: in vivo
[40] = Toxicity in ICR mouse assessed as heart damage at 20 to 60 mg/kg, po administered daily for 14 days; type: organism-based; details: in vivo, 336 h, dose 20-60 mg/kg, time 14 day
[41] = Clearance in ICR mouse at 2 mg/kg, iv measured by LC-MS/MS analysis; type: ADME, organism-based; details: in vivo
[42] = system: CWR22R; assay: Inhibition of colony formation in human 22Rv1 cells incubated for 2 weeks by crystal violet staining based analysis; type: functional, cell-based; details: dose 1-10 µM
[43] = system: PC-3; assay: Antiproliferative activity against AR-independent human PC-3 cells assessed as reduction in cell viability at 10 uM incubated for 6 days by CCK-8 assay; type: functional, cell-based; details: time 6.0 day
[44] = Metabolic stability in human liver microsomes assessed as parent compound remaining at 2 uM preincubated for 10 mins followed by compound addition and measured after 60 mins by LC-MS/MS analysis; type: ADME, Microsome; details: read-out: Stability
[45] = system: LNCaP; assay: Antitumor activity against human LNCaP cells xenografted in NOD SCID mouse assessed as reduction in tumor weight at 20 to 60 mg/kg, po administered daily for 4 weeks; type: functional, organism-based; details: dose 20-60 mg/kg
[46] = Stability in mouse plasma assessed as parent compound remaining measured after 15 mins by LC-MS/MS analysis; type: ADME, cell-free; details: read-out: Stability

**Q.** Which remaining at 2 h [1] does the source give for CC(C)(c1ccc(OCC2CCN(CC3CCN(c4ccc5c(c4)C(=O)N(C4CCC(=O)NC4=O)C5=O)CC3)CC2)cc1)c1ccc(OC[C@H](O)CCl)cc1 (stereo partly specified) here?
**A.** 87.3%

**Q.** And the Tmax [2]?
**A.** 6 min

**Q.** What about the IC50 [3] of the same compound?
**A.** 4.08 µM

**Q.** What about the AUC(0-t) [4] of the same compound?
**A.** 5.95 µg·h/mL

**Q.** What about the bioavailability [5] of the same compound?
**A.** 40.5%

**Q.** What about the Cmax [6] of the same compound?
**A.** 0.782 µg/mL

**Q.** What about the remaining at 1 h, 2 µM [7] of the same compound?
**A.** 80.9%

**Q.** What about the remaining at 0.25 h [8] of the same compound?
**A.** 92.2%

**Q.** What about the Activity [9] of the same compound?
**A.** ~15%

**Q.** And the Tmax [10]?
**A.** 2.8 h

**Q.** What about the remaining at 0.5 h [11] of the same compound?
**A.** 90.3%

**Q.** And the Activity [12]?
**A.** Dose-Dependent Effect

**Q.** What about the Activity [13] of the same compound?
**A.** Non-Toxic

**Q.** What about the microsomal CLint at 2 µM [14] of the same compound?
**A.** 7.4 µL/min/mg

**Q.** And the clearance [15]?
**A.** 0.932 L/h/kg

**Q.** And the half-life at 2 µM [16]?
**A.** 3.12 h

**Q.** And the Cmax [17]?
**A.** 0.0973 µg/mL

**Q.** And the IC50 [18]?
**A.** 5.59 µM

**Q.** What about the Tmax [19] of the same compound?
**A.** 4.7 h

**Q.** What about the Activity [20] of the same compound?
**A.** Dose-Dependent Effect

**Q.** And the F [21]?
**A.** 69.3%

**Q.** What about the AUCt [22] of the same compound?
**A.** 1.411 µg·h/mL

**Q.** And the half-life [23]?
**A.** 8.2 h

**Q.** And the remaining at 0 min [24]?
**A.** 100%

**Q.** And the half-life [25]?
**A.** 9.9 h

**Q.** What about the remaining at 1 h, 2 µM [26] of the same compound?
**A.** 78.2%

**Q.** And the remaining at 0.5 h [27]?
**A.** 92.1%

**Q.** And the Activity [28]?
**A.** Dose-Dependent Effect

**Q.** What about the remaining at 1 h, 2 µM [29] of the same compound?
**A.** 99.5%

**Q.** And the Activity [30]?
**A.** Non-Toxic

**Q.** And the Tmax [31]?
**A.** 6 min

**Q.** What about the Activity [32] of the same compound?
**A.** Dose-Dependent Effect

**Q.** What about the IC50 [33] of the same compound?
**A.** > 10 µM

**Q.** And the Activity [34]?
**A.** Non-Toxic

**Q.** What about the inhibition [35] of the same compound?
**A.** Dose-Dependent Effect

**Q.** And the AUC(0-t) [36]?
**A.** 3.02 µg·h/mL

**Q.** What about the half-life [37] of the same compound?
**A.** 31.2 h

**Q.** What about the Cmax [38] of the same compound?
**A.** 0.376 µg/mL

**Q.** And the half-life [39]?
**A.** 7.9 h

**Q.** And the Activity [40]?
**A.** Non-Toxic

**Q.** What about the clearance [41] of the same compound?
**A.** 0.594 L/h/kg

**Q.** What about the inhibition [42] of the same compound?
**A.** Dose-Dependent Effect

**Q.** And the Activity [43]?
**A.** inactive

**Q.** And the remaining at 1 h, 2 µM [44]?
**A.** 94%

**Q.** And the Activity [45]?
**A.** Active

**Q.** What about the remaining at 0.25 h [46] of the same compound?
**A.** 88%
